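Briefly, cells in 96-well plates were exposed to five compound concentrations for 48 h, and endpoints were estimated by linear interpolation. TGI marks complete inhibition of growth.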
Key:
Assay in all cases: NCI anticancer screen, dose series, 48 h
RPMI-8226 leukemia = tested on: RPMI-8226 leukemia
K-562 leukemia = tested on: K-562 leukemia
786-0 renal = tested on: 786-0 renal
COLO 205 colon = tested on: COLO 205 colon
UACC-62 melanoma = tested on: UACC-62 melanoma
SF-539 CNS = tested on: SF-539 CNS
SK-MEL-2 melanoma = tested on: SK-MEL-2 melanoma
NCI-H23 lung = tested on: NCI-H23 lung
OVCAR-8 ovarian = tested on: OVCAR-8 ovarian
KM20L2 colon = tested on: KM20L2 colon
KM12 colon = tested on: KM12 colon
HCC-2998 colon = tested on: HCC-2998 colon
NCI-H226 lung = tested on: NCI-H226 lung
A549 NSCLC = tested on: A549 NSCLC
NCI-H522 lung = tested on: NCI-H522 lung
LOX IMVI melanoma = tested on: LOX IMVI melanoma
HT29 colon = tested on: HT29 colon
IGROV1 ovarian = tested on: IGROV1 ovarian
SW-620 colon = tested on: SW-620 colon
SNB-78 CNS = tested on: SNB-78 CNS
HOP-62 NSCLC = tested on: HOP-62 NSCLC
OVCAR-4 ovarian = tested on: OVCAR-4 ovarian
NCI-H460 lung = tested on: NCI-H460 lung
CCRF-CEM leukemia = tested on: CCRF-CEM leukemia
SR leukemia = tested on: SR leukemia
SF-268 CNS = tested on: SF-268 CNS
SN12C renal = tested on: SN12C renal
HL-60(TB) leukemia = tested on: HL-60(TB) leukemia
SNB-19 CNS = tested on: SNB-19 CNS
RXF-631 renal = tested on: RXF-631 renal
MOLT-4 leukemia = tested on: MOLT-4 leukemia
UO-31 renal = tested on: UO-31 renal
OVCAR-3 ovarian = tested on: OVCAR-3 ovarian
A498 renal = tested on: A498 renal
OVCAR-5 ovarian = tested on: OVCAR-5 ovarian
LXFL 529 NSCLC = tested on: LXFL 529 NSCLC
HCT-116 colon = tested on: HCT-116 colon
M14 melanoma = tested on: M14 melanoma
UACC-257 melanoma = tested on: UACC-257 melanoma
DMS 273 small cell lung = tested on: DMS 273 small cell lung
U251 CNS = tested on: U251 CNS
HCT-15 colon = tested on: HCT-15 colon
SF-295 CNS = tested on: SF-295 CNS
ACHN renal = tested on: ACHN renal

COc1ccc2c(CCNS(=O)(=O)c3ccccc3)c(C(C)=O)[nH]c2c1[N+](=O)[O-]
TGI (RPMI-8226 leukemia): > 100 µM
TGI (K-562 leukemia): > 100 µM
TGI (786-0 renal): > 100 µM
TGI (COLO 205 colon): > 100 µM
TGI (UACC-62 melanoma): > 100 µM
TGI (SF-539 CNS): 77.7 µM
TGI (SK-MEL-2 melanoma): > 100 µM
TGI (NCI-H23 lung): > 100 µM
TGI (OVCAR-8 ovarian): > 100 µM
TGI (KM20L2 colon): > 100 µM
TGI (KM12 colon): > 100 µM
TGI (HCC-2998 colon): > 100 µM
TGI (NCI-H226 lung): > 100 µM
TGI (A549 NSCLC): > 100 µM
TGI (NCI-H522 lung): > 100 µM
TGI (LOX IMVI melanoma): > 100 µM
TGI (HT29 colon): > 100 µM
TGI (IGROV1 ovarian): > 100 µM
TGI (SW-620 colon): > 100 µM
TGI (SNB-78 CNS): > 100 µM
TGI (HOP-62 NSCLC): > 100 µM
TGI (OVCAR-4 ovarian): > 100 µM
TGI (NCI-H460 lung): > 100 µM
TGI (CCRF-CEM leukemia): > 100 µM
TGI (SR leukemia): > 100 µM
TGI (SF-268 CNS): > 100 µM
TGI (SN12C renal): > 100 µM
TGI (HL-60(TB) leukemia): > 100 µM
TGI (SNB-19 CNS): > 100 µM
TGI (RXF-631 renal): > 100 µM
TGI (MOLT-4 leukemia): > 100 µM
TGI (UO-31 renal): > 100 µM
TGI (OVCAR-3 ovarian): > 100 µM
TGI (A498 renal): > 100 µM
TGI (OVCAR-5 ovarian): > 100 µM
TGI (LXFL 529 NSCLC): > 100 µM
TGI (HCT-116 colon): > 100 µM
TGI (M14 melanoma): > 100 µM
TGI (UACC-257 melanoma): > 100 µM
TGI (DMS 273 small cell lung): > 100 µM
TGI (U251 CNS): > 100 µM
TGI (HCT-15 colon): > 100 µM
TGI (SF-295 CNS): > 100 µM
TGI (ACHN renal): > 100 µM

— PubChem BioAssay (NCI)
